Laboratory results reported in patent US20050080096A1, “Condensed heterocyclic compounds” (priority 2002, published 2005).

Target: recombinant human PARP (Homo sapiens, UniProt P09874)
Experiment: PARP Inhibitory Activity (In vitro assay)
Type: biochemical
Conditions: 32P-NAD, activated DNA, 15 minutes at room temperature, pH8.0
Description: The recombinant human PARP (5.3 mg protein/ml) were incubated with a test compound in a 100 μl reaction buffer containing the indicated concentration of 1 mCi/ml ^32P-NAD, 50 mM Tris-HCl, 25 mM MgCl2, 1 mM DTT (dithiothreitol), 0.05 mM NAD (nicotinamido adenine dinucleotide), lmg/mi activated DNA, pH8.0. Incubation was for 15 minutes at a room temperature and the reaction was stopped by the addition of 200 μl of ice-cold 20% trichloroacetic acid followed by rapid filtration through GF/B filters. The filters were treated with scintillation fluid and acid-insoluble counts were measured for quantification of unit activity.
PARP Inhibitory Activity (%)=
[1-(enzyme activity with test compound)/(enzyme activity with vehicle)]×100

Sequence of recombinant human PARP (P09874 whole entry): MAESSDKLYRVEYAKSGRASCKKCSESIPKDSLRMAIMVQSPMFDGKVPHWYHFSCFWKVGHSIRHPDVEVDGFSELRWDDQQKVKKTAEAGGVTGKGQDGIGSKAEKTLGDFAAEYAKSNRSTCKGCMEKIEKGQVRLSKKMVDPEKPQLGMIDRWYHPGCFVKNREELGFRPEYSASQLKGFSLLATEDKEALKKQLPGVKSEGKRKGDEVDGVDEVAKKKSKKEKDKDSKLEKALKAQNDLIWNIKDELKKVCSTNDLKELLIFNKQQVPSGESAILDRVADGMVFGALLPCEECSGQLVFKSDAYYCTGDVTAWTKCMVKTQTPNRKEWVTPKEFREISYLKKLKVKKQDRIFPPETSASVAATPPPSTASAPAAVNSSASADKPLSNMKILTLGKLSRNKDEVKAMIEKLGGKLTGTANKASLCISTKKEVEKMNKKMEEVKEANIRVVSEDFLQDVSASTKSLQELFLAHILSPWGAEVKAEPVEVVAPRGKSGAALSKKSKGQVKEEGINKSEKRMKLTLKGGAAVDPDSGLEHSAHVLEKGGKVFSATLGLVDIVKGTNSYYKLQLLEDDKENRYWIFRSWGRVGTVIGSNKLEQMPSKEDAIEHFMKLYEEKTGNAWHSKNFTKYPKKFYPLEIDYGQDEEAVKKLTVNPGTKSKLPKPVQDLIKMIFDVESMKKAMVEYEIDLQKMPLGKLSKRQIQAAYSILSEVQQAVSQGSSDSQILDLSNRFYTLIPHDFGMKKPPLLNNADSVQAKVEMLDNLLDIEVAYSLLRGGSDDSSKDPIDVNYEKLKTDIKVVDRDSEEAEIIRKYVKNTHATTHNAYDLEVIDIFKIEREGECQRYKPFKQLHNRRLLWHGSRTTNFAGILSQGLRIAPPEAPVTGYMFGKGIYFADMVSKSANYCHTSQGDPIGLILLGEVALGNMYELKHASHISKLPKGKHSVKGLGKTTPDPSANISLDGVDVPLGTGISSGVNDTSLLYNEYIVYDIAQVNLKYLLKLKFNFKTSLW

SMILES | IC50 [nM]
O=c1[nH]c(CCCN2CC=C(c3ccccc3)CC2)nc2c1CCCC2 [Compound A, 2-[3-(4-Phenyl-3,6-dihydro-1(2H)-pyridyl)propyl]-5,6,7,8-tetrahydro-4(3H)-quinazolinone] | < 500
O=c1[nH]c(CCCN2CC=C(c3ccccc3)CC2)nc2c1CSCC2 [Compound B, 2-[3-(4-Phenyl-3,6-dihydro-1(2H)-pyridyl)propyl]-3,5,7,8-tetrahydro4H-thiopyrano[4,3-d]pyrimidin-4-one] | < 500
O=c1[nH]nc(CCCCN2CC=C(c3ccccc3)CC2)c2ccccc12 [Compound C, 4-[4-(4-Phenyl-3,6dihydro-1(2H)-pyridyl)butyl]-1(2H)-phthalazinone] | < 500
Cn1c2c(c3ccccc31)CCN(CCCCc1n[nH]c(=O)c3ccccc13)C2 [Compound D] | < 500
